Experimental data from patent US4220755A, “Fortimicin B derivatives and process for production thereof” (Abbott Laboratories, priority 1976, dated 1980).
≈ marks a conversion by molar mass, not a printed value. Where two headings read alike, the source gives them in different places.

Assays:
Test in all cases: MIC, agar dilution method, pH 8.0
Assay type in all cases: cell-based
[1] = system: Staphylococcus aureus KY4279 ATCC6538P
Experimental: (§1) Measurement was carried out according to the agar dilution method, using a medium of pH 8.0, or the Japanese Antibiotic Medicament Standard, using a medium of pH 7.2 Units are in mcg/ml.
S.A.: Staphylococcus aureus KY4279 ATCC6538P

[2] = system: Bacillus subtilis KY4273
Experimental: as §1
B.S.: Bacillus subtilis KY4273

[3] = system: Eschericia coli KY4271 ATCC26; details: Escherichia coli
Experimental: as §1
E.C.: Eschericia coli KY4271 ATCC26

[4] = system: Proteus vulgaris KY4277 ATCC6897
Experimental: as §1

[5] = system: Shigella sonnei KY4281 ATCC9290; details: ATCC9290; pH 8.0; Shigella sonnei KY4281; read-out: Minimum inhibition concentration (MIC), SS
Experimental: as §1

[6] = system: Salmonella typhosa KY4278 ATCC9992; details: Salmonella enterica, pH 8, read-out: Minimum inhibition concentration (MIC), ST
Experimental: as §1
S.T.: Salmonella typhosa KY4278 ATCC9992

[7] = system: Klebsiella pneumoniae KY4275 ATCC10031; details: ATCC10031; pH 8.0; Klebsiella pneumoniae KY4275; read-out: Minimum inhibition concentration (MIC), KP
Experimental: as §1
K.P.: Klebsiella pneumoniae KY4275 ATCC10031.

[8] = pH 8.0, Staphylococcus aureus KY4279, read-out: Minimum inhibition concentration (MIC), SA
[9] = pH 8.0, Bacillus subtilis KY4273, read-out: Minimum inhibition concentration (MIC), BS
[10] = ATCC26, pH 8.0, E. coli KY4271, read-out: Minimum inhibition concentration (MIC), EC
[11] = ATCC6897, pH 8.0, Proteus vulgaris KY4277, read-out: Minimum inhibition concentration (MIC), PV
[12] = ATCC26, pH 8, read-out: Minimum inhibition concentration (MIC), EC
[13] = Bacillus subtilis, KY4273, pH 8, read-out: Minimum inhibition concentration (MIC), BS

Structure (SMILES) | MIC [1, 8] [µg/mL] | MIC [2, 9] [µg/mL] | MIC [3, 10] [µg/mL] | MIC [4, 11] [µg/mL] | MIC [5] [µg/mL] | MIC [6] [µg/mL] | MIC [7] [µg/mL] | MIC [3, 12] [µg/mL] | MIC ([4]; Proteus vulgaris, ATCC6897, pH 8, read-out: Minimum inhibition concentration (MIC), PV) [µg/mL] | MIC [2, 13] [µg/mL] | MIC ([1]; Staphylococcus aureus, pH 8, read-out: Minimum inhibition concentration (MIC), SA) [µg/mL]
CO[C@H]1[C@@H](O)[C@H](N)[C@@H](O[C@H]2O[C@H]([C@H](C)N)CC[C@H]2N)[C@H](O)[C@@H]1N(C)C(=O)CCCN [Compound 10, 4-N-(γ-amino-n-butyryl)fortimicin B] | 0.32 (≈ 0.738 µM) | 0.16 (≈ 0.369 µM) | 1.25 (≈ 2.88 µM) | 1.25 (≈ 2.88 µM) | 2.5 (≈ 5.77 µM) | 0.63 (≈ 1.45 µM) | 2.5 (≈ 5.77 µM) | – | – | – | –
CCC(=O)N(C)[C@H]1[C@@H](O)[C@H](O[C@H]2O[C@H]([C@H](C)N)CC[C@H]2N)[C@@H](N)[C@H](O)[C@@H]1OC [Compound 6, 4-N-propionylfortimicin B] | 12.5 (≈ 30.9 µM) | 50 (≈ 124 µM) | 50 (≈ 124 µM) | 200 (≈ 494 µM) | > 200 | 50 (≈ 124 µM) | > 200 | – | – | – | –
CO[C@H]1[C@@H](O)[C@H](N)[C@@H](O[C@H]2O[C@H]([C@H](C)N)CC[C@H]2N)[C@H](O)[C@@H]1N(C)C(=O)CNC(=O)CN [Compound 13, 4-N-glycylglycylfortimicin B] | 0.32 (≈ 0.692 µM) | 0.32 (≈ 0.692 µM) | – | 2.5 (≈ 5.4 µM) | 5 (≈ 10.8 µM) | 1.25 (≈ 2.7 µM) | 2.5 (≈ 5.4 µM) | 1.25 (≈ 2.7 µM) | – | – | –
CNCCN(C)[C@H]1[C@@H](O)[C@H](O[C@H]2O[C@H]([C@H](C)N)CC[C@H]2N)[C@@H](N)[C@H](O)[C@@H]1OC [Compound 26, 4-N-(2-methylaminoethyl)fortimicin B] | 0.04 (≈ 0.0986 µM) | 0.32 (≈ 0.789 µM) | 0.16 (≈ 0.395 µM) | – | 5 (≈ 12.3 µM) | 1.25 (≈ 3.08 µM) | 5 (≈ 12.3 µM) | – | 1.25 (≈ 3.08 µM) | – | –
CO[C@H]1[C@@H](O)[C@H](N)[C@@H](O[C@H]2O[C@H]([C@H](C)N)CC[C@H]2N)[C@H](O)[C@@H]1N(C)CCCCCN [Compound 22, 4-N-(5-aminopentyl)fortimicin B] | 1.25 (≈ 2.88 µM) | 0.63 (≈ 1.45 µM) | 5 (≈ 11.5 µM) | 10 (≈ 23.1 µM) | 5 (≈ 11.5 µM) | 2.5 (≈ 5.77 µM) | 20 (≈ 46.1 µM) | – | – | – | –
CCCC(=O)N(C)[C@H]1[C@@H](O)[C@H](O[C@H]2O[C@H]([C@H](C)N)CC[C@H]2N)[C@@H](N)[C@H](O)[C@@H]1OC [Compound 7, 4-N-(n-butyryl)fortimicin B] | 6.25 (≈ 14.9 µM) | – | 6.25 (≈ 14.9 µM) | 100 (≈ 239 µM) | 50 (≈ 119 µM) | 12.5 (≈ 29.9 µM) | 25 (≈ 59.7 µM) | – | – | 12.5 (≈ 29.9 µM) | –
CO[C@H]1[C@@H](O)[C@H](N)[C@@H](O[C@H]2O[C@H]([C@H](C)N)CC[C@H]2N)[C@H](O)[C@@H]1N(C)C[C@@H](O)CN [Compound 31, 4-N-[(S)-3-amino-2-hydroxypropyl]fortimicin B] | 0.16 (≈ 0.38 µM) | 0.32 (≈ 0.759 µM) | 2.5 (≈ 5.93 µM) | 1.25 (≈ 2.97 µM) | 2.5 (≈ 5.93 µM) | 0.63 (≈ 1.49 µM) | 2.5 (≈ 5.93 µM) | – | – | – | –
CO[C@H]1[C@@H](O)[C@H](N)[C@@H](O[C@H]2O[C@H]([C@H](C)N)CC[C@H]2N)[C@H](O)[C@@H]1N(C)CCNCCN [Compound 25, 4-N-[2-(2-aminoethyl)aminoethyl]fortimicin B] | 0.63 (≈ 1.45 µM) | – | – | 5 (≈ 11.5 µM) | 5 (≈ 11.5 µM) | 1.25 (≈ 2.88 µM) | 5 (≈ 11.5 µM) | 1.25 (≈ 2.88 µM) | – | 1.25 (≈ 2.88 µM) | –
CO[C@H]1[C@@H](O)[C@H](N)[C@@H](O[C@H]2O[C@H]([C@H](C)N)CC[C@H]2N)[C@H](O)[C@@H]1N(C)CCCN [Compound 20, 4-N-(3-aminopropyl)fortimicin B] | – | 2.5 (≈ 6.16 µM) | 5 (≈ 12.3 µM) | 10 (≈ 24.7 µM) | 20 (≈ 49.3 µM) | 1.25 (≈ 3.08 µM) | 80 (≈ 197 µM) | – | – | – | 1.25 (≈ 3.08 µM)
CO[C@H]1[C@@H](O)[C@H](N)[C@@H](O[C@H]2O[C@H]([C@H](C)N)CC[C@H]2N)[C@H](O)[C@@H]1N(C)CCCCCCN [Compound 23, 4-N-(6-aminohexyl)fortimicin B] | 5 (≈ 11.2 µM) | 5 (≈ 11.2 µM) | 20 (≈ 44.7 µM) | > 80 | > 80 | 20 (≈ 44.7 µM) | > 80 | – | – | – | –
CNC[C@H](O)CN(C)[C@H]1[C@@H](O)[C@H](O[C@H]2O[C@H]([C@H](C)N)CC[C@H]2N)[C@@H](N)[C@H](O)[C@@H]1OC [Compound 32, 4-N-[(S)-3-methylamino-2-hydroxypropyl]fortimicin B] | 0.16 (≈ 0.367 µM) | 0.63 (≈ 1.45 µM) | 2.5 (≈ 5.74 µM) | 2.5 (≈ 5.74 µM) | 2.5 (≈ 5.74 µM) | 0.63 (≈ 1.45 µM) | 5 (≈ 11.5 µM) | – | – | – | –
